Measurements reported in patent publication US11926598B1, “1-(4-nitrobenzylideneamino)-5-phenylimidazolidine-2,4-dione as an antimicrobial compound” (KING FAISAL UNIVERSITY, priority 2023, dated 2024).

Experiments:
Type in all cases: cell-based
Aspergillus flavus = assay: Agar plate disc-diffusion, antifungal inhibition zone
Method: (§1) The agar plate disc-diffusion method was applied. […] The discs were then placed onto the surface of agar plates (nutrient agar for bacteria and Sabouraud's dextrose agar for fungi) seeded with the test organism. Each plate contained 15 mL of the agar medium, previously seeded with 0.2 mL of the broth culture of each organism pregrown for 18 hours. The plates were incubated at 37° C. for 48 hours, and 72 hours for fungi. The inhibition zones was measured in millimeter. Discs impregnated with DMSO were used as a control, and its inhibition zone was subtracted from the tested compound actual inhibition zone.
(§2) The results of the antimicrobial testing can be observed in Tables 1 and 2, below, with ciprofloxacin serving as a reference.

[1] = test system: Chrysosporium keratinophilum; assay: as above
Method: as §1, §2

Bacillus Cereus = assay: Agar plate disc-diffusion, antibacterial inhibition zone; settings: Bacillus Cereus (Gram positive)
Method: as §1, §2

Pseudomonas aeruginosa = assay: as above; settings: Pseudomonas aeruginosa (Gram negative)
Method: as §1, §2

Staphylococcus aureus = assay: as above; settings: Staphylococcus aureus (Gram positive)
Method: as §1, §2

Escherichia coli = assay: as above; settings: Escherichia coli (Gram negative)
Method: as §1, §2

[2] = A = concentration of comp. = 10,000 μL
[3] = B = concentration of comp. = 30.000 μL
[4] = C = concentration of comp. = 50,000 μL

SMILES | inhibition zone (Aspergillus flavus; [2]) | inhibition zone (Aspergillus flavus; [3]) | inhibition zone (Aspergillus flavus; [4]) | inhibition zone [1, 2] | inhibition zone [1, 3] | inhibition zone [1, 4] | inhibition zone (Bacillus Cereus; [2]) | inhibition zone (Bacillus Cereus; [3]) | inhibition zone (Bacillus Cereus; [4]) | inhibition zone (Pseudomonas aeruginosa; [2]) | inhibition zone (Pseudomonas aeruginosa; [3]) | inhibition zone (Pseudomonas aeruginosa; [4]) | inhibition zone (Staphylococcus aureus; [2]) | inhibition zone (Staphylococcus aureus; [3]) | inhibition zone (Staphylococcus aureus; [4]) | inhibition zone (Escherichia coli; [2]) | inhibition zone (Escherichia coli; [3]) | inhibition zone (Escherichia coli; [4])
O=C(O)c1cn(C2CC2)c2cc(N3CCNCC3)c(F)cc2c1=O [Cip., ciprofloxacin] | 29 millimeter | 30 millimeter | 42 millimeter | 29 millimeter | 30 millimeter | 53 millimeter | 29 millimeter | 30 millimeter | 42 millimeter | 29 millimeter | 30 millimeter | 53 millimeter | 43 millimeter | 44 millimeter | 53 millimeter | 30 millimeter | 39 millimeter | 60 millimeter
O=C1NC(=O)N(N=Cc2ccc([N+](=O)[O-])cc2)C1c1ccccc1 (stereo not drawn) [Compound 4, 1-(4-nitrobenzylideneamino)-5-phenylimidazolidine-2,4-dione] | 19 millimeter | 24 millimeter | 35 millimeter | 26 millimeter | 28 millimeter | 50 millimeter | 25 millimeter | 27 millimeter | 37 millimeter | 25 millimeter | 27 millimeter | 40 millimeter | 19 millimeter | 24 millimeter | 30 millimeter | 30 millimeter | 35 millimeter | 51 millimeter
